Experimental data as given in patent US20090291857A1, “METHODS TO IDENTIFY INHIBITORS OF THE UNFOLDED PROTEIN RESPONSE” (THE BOARD OF TRUSTEES OF THE LELAND STANFORD JUNIOR …, priority 2006, published 2009).

Assays:
[1] = system: Grp78; test: Grp78 immunoblot in HT1080 cells; assay type: cell-based, human; conditions: 2.5 μM, 16 hours (also 24 or 36 hours)
Procedure: (§1) Cells (2×10^6) were cultured in 10-cm dishes, collected using a cell scraper at 4° C., and lysed by addition of 150 μl cell lysis buffer [50 mM Tris pH 7.4, 150 mM NaCl, 10% glycerol, 0.5% Triton X-100. 0.5% NP-40, 2 mM Na3VO4, 20 mM beta-glycerophosphate, 10 mM NaF, 1 mM DTT, 1 mM PMSF). Lysates were centrifuged for 5 min at 10,000×g, and proteins (˜40 μg) were resolved by SDS-PAGE followed by semi-dry transfer to nitrocellulose membranes. Membranes were blocked in TBS-5% milk supplemented with 0.1% Tween-20. The blots were then probed overnight with relevant antibodies, washed, and incubated for 2 hours with species-specific secondary antibodies conjugated to horseradish peroxidase. After washing in block solution, immunoreactive material was detected by enhanced chemiluminescence (SuperSignal West Dura Extended, Pierce, Inc., Rockville, Ill.).
(§2) HT1080 cells were exposed to DMSO vehicle (lane 1), irestatin 9389 (2.5 μM; lane 2) for 16 hours or Tm (5 μg/ml; lane 3) for 8 hours. Following treatments, cells were harvested, lysed, and analyzed by immunoblotting using anti-Grp78 antibody (top) or anti-actin (bottom) as a loading control. […] Cell lysates were analyzed by Western immunoblotting using anti-IRE1α (bottom) or anti-phospho-IRE1α antibodies (top). […] Lysates were analyzed by Western blot using antisera specific for phospho-JNK1 (top) or total JNK1 (bottom). […]

[2] = target: T1, IRE1α (Homo sapiens, UniProt O75460); test: IRE1α expression and kinase function (phospho-IRE1α immunoblot); assay type: cell-based
T1 construct: endogenous in cells; host or cells: HT1080
T1 sequence (O75460 19-977): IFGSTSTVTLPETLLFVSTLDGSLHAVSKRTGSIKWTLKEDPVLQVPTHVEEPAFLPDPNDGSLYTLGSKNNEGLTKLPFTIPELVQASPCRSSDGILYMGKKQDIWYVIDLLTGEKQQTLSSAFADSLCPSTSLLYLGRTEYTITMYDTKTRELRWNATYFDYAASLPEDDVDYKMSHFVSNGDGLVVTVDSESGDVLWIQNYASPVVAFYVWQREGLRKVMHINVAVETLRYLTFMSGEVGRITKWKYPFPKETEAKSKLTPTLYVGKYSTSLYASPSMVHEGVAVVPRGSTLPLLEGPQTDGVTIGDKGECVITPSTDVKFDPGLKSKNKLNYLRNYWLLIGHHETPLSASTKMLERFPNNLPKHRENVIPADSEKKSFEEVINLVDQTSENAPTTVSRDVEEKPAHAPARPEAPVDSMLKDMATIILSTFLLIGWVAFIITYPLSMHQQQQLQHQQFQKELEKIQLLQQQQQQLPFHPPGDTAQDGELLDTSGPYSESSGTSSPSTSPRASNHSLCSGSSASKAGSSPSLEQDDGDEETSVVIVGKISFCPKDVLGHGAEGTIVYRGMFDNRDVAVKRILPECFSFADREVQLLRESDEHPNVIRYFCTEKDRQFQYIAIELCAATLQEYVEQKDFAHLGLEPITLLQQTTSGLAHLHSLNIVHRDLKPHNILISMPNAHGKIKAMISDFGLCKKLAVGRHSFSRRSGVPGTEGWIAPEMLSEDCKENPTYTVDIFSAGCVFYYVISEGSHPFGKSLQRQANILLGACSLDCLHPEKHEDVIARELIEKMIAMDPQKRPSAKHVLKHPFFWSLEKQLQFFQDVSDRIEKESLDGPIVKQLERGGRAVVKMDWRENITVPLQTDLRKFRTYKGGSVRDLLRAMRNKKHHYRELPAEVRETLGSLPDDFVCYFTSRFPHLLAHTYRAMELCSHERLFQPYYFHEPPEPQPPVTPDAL
Procedure: as §1, §2

## Cc1csc(NC(=O)CSc2nc3c(c(C(F)(F)F)c2C#N)CCC3)n1 [Compound 9389]
[1]; listed as Irestatin 9389
  Grp78 levels: does not modulate the expression of Grp78
[1]; listed as irestatin 9389
  Grp78 levels: no effect on Grp78 levels
[2]; 2.5 μM, 16 hours
  total level of IRE1α: no significant changes
[2]; 16 hours preincubation 2.5 μM, then Tm 5 μg/ml
  levels of phospho-IRE1α after Tm: rapid increase in levels of phospho-IRE1α
